From ChEMBL document CHEMBL1909046, “DrugMatrix in vitro pharmacology data”

Experiments:
[1] = molecular target: T1, 3-hydroxy-3-methylglutaryl-coenzyme A reductase (Homo sapiens, UniProt P04035); design: species or system Escherichia coli;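 further: enzyme inhibition assay of HMG-CoA reductase using radiolabeled [14C]HMG-CoA as substrate; in other assays of this panel Not Active means under 50% inhibition at 10 µM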
T1 sequence (P04035 whole entry): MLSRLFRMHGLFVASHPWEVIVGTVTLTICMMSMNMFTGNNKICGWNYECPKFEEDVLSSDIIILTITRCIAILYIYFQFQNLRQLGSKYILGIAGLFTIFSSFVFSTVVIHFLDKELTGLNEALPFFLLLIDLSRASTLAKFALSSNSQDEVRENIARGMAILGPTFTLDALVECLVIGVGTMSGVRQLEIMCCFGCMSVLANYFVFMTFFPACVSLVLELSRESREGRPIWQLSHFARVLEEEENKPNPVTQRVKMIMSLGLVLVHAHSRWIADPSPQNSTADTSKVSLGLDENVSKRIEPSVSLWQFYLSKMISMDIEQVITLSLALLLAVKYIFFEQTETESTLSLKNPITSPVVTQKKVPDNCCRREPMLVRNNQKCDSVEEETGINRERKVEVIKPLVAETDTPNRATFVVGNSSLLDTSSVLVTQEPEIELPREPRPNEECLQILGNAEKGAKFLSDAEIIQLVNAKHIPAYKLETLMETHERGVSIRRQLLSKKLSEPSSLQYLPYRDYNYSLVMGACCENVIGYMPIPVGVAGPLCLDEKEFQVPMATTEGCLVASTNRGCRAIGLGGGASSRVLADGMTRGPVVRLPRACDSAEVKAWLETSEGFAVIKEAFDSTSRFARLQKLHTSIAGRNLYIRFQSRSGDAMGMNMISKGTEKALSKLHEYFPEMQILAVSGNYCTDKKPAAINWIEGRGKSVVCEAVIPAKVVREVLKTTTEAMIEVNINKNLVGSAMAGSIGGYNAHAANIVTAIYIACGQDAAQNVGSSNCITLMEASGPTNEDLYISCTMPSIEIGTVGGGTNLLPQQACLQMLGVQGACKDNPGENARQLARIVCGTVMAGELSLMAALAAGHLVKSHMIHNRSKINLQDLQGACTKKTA

[2] = molecular target: T2, Muscarinic acetylcholine receptor M2 (Homo sapiens, UniProt P08172); format: cell membranes, CHO-K1, Membrane; details: cho-k1; further: in other assays of this panel Not Active means under 50% inhibition at 10 µM
T2 sequence (P08172 whole entry): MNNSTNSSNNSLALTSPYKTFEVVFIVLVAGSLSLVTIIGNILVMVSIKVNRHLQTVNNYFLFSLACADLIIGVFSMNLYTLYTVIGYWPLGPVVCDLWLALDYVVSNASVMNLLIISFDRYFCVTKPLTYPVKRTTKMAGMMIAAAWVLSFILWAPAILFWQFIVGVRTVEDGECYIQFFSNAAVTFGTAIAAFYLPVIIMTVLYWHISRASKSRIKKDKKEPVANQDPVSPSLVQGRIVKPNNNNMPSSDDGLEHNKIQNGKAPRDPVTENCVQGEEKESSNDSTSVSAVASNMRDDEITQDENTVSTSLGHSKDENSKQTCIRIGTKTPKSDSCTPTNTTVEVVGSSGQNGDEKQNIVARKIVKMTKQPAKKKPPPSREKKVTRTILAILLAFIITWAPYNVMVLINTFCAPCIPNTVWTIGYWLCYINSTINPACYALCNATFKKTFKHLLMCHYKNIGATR

[3] = molecular target: T3, Neuropeptide Y receptor type 1 (Homo sapiens, UniProt P25929); format: cell membranes, Membrane; details: sk-n-mc; further: in other assays of this panel Not Active means under 50% inhibition at 10 µM
T3 sequence (P25929 whole entry): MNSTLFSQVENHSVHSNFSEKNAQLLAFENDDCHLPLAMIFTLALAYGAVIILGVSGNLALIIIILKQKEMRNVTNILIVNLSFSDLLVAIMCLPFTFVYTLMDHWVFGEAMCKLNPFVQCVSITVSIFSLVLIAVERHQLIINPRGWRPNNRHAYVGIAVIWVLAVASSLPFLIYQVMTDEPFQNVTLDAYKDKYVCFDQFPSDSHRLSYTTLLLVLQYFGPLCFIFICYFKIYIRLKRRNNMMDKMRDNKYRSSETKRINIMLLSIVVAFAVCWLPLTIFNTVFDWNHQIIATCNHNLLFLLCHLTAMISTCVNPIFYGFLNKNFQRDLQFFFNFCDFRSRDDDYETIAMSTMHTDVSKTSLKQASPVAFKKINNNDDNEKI

[4] = molecular target: Delta-type opioid receptor (Homo sapiens, UniProt P41143); format: cell membranes, HEK293, Membrane; details: hek293; further: in other assays of this panel Not Active means under 50% inhibition at 10 µM
Delta-type opioid receptor, sequence (P41143 whole entry): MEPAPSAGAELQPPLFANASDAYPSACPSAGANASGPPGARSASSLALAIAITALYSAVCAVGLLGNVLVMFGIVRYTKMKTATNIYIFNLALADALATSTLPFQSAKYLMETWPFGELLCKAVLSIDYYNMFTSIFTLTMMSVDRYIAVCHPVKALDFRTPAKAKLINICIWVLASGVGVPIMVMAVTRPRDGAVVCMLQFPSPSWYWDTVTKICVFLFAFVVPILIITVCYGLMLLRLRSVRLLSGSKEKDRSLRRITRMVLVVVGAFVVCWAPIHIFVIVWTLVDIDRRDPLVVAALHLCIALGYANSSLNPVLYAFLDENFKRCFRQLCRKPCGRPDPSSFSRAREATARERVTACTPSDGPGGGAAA

[5] = molecular target: T4, Neutrophil elastase (Homo sapiens, UniProt P08246); format: tissue-based
T4 sequence (P08246 whole entry): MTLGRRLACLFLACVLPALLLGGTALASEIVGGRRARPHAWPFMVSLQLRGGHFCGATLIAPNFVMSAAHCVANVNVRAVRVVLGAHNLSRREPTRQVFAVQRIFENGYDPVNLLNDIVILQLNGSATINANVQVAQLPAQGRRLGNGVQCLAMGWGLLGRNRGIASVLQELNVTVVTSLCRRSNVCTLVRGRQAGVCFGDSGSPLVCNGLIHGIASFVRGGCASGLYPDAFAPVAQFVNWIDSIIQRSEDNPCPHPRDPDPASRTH

[6] = molecular target: Mitogen-activated protein kinase 1 (Homo sapiens, UniProt P28482); assay: DRUGMATRIX: Protein Serine/Threonine Kinase, ERK2 enzyme inhibition (substrate: Myelin Basic Protein); design: species or system Escherichia coli; details: Not Active = under 50% inhibition at 10 µM
Mitogen-activated protein kinase 1, sequence (P28482 whole entry): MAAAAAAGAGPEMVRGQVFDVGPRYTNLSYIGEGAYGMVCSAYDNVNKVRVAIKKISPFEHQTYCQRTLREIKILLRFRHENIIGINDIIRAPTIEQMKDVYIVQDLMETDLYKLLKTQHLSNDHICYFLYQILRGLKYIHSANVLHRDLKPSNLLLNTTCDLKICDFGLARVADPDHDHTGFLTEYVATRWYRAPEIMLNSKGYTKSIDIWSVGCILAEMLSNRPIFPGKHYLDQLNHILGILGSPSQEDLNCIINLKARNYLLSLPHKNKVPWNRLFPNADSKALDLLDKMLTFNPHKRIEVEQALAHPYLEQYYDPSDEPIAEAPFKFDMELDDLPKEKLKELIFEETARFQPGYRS

[7] = molecular target: T5, 5-hydroxytryptamine receptor 1A (Rattus norvegicus, UniProt P19327); format: cell membranes, Membrane; details: cho-k1; further: in other assays of this panel Not Active means under 50% inhibition at 10 µM
T5 sequence (P19327 whole entry): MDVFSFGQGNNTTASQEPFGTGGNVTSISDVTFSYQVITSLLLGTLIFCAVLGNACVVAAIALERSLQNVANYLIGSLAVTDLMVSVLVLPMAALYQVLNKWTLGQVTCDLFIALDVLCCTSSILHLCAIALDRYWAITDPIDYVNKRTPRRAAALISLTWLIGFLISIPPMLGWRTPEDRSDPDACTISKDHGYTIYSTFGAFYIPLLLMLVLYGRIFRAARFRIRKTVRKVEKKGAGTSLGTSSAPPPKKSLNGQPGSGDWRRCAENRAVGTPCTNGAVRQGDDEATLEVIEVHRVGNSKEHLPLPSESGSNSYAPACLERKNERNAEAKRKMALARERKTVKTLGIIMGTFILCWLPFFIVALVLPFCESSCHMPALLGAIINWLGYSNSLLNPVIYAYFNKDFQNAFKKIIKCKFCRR

[8] = molecular target: Acetylcholinesterase (Homo sapiens, UniProt P22303); assay: DRUGMATRIX: Acetylcholinesterase enzyme inhibition (substrate: acetylthiocholine); format: cell-based, HEK293; details: hek293; Not Active = under 50% inhibition at 10 µM
Acetylcholinesterase, sequence (P22303 whole entry): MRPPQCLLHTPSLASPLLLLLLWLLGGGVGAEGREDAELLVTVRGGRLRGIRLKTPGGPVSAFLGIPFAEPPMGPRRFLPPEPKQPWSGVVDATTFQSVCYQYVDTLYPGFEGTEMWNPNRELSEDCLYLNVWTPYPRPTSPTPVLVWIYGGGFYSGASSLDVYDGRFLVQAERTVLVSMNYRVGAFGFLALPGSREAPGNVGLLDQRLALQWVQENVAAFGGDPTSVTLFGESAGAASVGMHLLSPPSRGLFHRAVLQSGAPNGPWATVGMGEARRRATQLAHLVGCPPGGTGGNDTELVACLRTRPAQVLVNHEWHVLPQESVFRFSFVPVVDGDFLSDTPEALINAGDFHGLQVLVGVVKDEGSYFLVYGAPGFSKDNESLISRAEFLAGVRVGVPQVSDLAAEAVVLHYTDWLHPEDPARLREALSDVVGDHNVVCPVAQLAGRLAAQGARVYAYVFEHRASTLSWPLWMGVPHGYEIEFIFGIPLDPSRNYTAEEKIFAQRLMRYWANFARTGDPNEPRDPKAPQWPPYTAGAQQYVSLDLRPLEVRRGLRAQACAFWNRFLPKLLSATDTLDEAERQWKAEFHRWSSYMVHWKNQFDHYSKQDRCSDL

[9] = molecular target: Adenosine receptor A2a (Homo sapiens, UniProt P29274); assay: DRUGMATRIX: Adenosine A2A radioligand binding (ligand: […]); format: cell membranes, HEK293, Membrane; details: hek293; Not Active = under 50% inhibition at 10 µM
Adenosine receptor A2a, sequence (P29274 whole entry): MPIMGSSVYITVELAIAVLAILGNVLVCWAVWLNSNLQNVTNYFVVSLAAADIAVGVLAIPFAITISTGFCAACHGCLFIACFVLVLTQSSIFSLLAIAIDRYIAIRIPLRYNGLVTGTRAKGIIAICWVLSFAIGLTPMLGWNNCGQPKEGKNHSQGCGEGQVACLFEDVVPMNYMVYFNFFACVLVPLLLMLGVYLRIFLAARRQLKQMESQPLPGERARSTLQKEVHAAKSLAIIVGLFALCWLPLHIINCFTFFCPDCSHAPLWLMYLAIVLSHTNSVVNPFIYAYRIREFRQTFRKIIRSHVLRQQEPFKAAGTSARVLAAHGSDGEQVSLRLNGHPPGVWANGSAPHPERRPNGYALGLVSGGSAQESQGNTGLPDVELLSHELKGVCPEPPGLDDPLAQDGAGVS

[10] = molecular target: Cytochrome P450 3A4 (Homo sapiens, UniProt P08684); details: bti-tn-5b1-4; further: in other assays of this panel Not Active means under 50% inhibition at 10 µM
Cytochrome P450 3A4, sequence (P08684 whole entry): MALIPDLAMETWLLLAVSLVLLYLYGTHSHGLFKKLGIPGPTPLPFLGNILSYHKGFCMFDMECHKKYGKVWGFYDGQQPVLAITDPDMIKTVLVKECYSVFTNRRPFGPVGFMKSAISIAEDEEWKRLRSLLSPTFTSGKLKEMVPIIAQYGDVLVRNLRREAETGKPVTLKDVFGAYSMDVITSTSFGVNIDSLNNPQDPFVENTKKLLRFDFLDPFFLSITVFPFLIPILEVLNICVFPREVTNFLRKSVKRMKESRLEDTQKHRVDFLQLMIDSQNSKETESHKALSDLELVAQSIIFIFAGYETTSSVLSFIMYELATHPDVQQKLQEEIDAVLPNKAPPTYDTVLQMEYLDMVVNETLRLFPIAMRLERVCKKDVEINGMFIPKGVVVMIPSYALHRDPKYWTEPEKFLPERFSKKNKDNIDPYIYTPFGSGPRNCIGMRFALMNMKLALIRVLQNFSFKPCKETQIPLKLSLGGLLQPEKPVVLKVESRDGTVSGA

[11] = molecular target: Estrogen receptor beta (Homo sapiens, UniProt Q92731); details: sf9; further: in other assays of this panel Not Active means under 50% inhibition at 10 µM
Estrogen receptor beta, sequence (Q92731 whole entry): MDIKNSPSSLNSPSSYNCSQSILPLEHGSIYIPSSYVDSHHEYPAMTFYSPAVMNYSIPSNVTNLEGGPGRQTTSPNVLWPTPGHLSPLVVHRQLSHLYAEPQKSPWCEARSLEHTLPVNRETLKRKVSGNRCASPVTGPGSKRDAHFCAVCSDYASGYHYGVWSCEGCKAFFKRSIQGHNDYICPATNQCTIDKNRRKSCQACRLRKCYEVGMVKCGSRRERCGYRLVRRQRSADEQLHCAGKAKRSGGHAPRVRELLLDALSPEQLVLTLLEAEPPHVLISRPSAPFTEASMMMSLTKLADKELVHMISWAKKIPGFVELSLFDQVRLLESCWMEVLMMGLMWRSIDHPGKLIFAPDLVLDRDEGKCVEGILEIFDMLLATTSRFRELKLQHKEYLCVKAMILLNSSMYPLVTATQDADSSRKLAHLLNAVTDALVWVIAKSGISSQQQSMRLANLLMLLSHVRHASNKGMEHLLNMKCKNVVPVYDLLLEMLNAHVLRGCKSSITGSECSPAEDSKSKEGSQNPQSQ

[H]/N=C(/N)N[C@H]1[C@H](O)[C@@H](O)[C@H](O[C@@H]2O[C@@H](C)[C@](O)(C=O)[C@H]2O[C@@H]2O[C@@H](CO)[C@H](O)[C@@H](O)[C@@H]2NC)[C@@H](N/C(N)=N\[H])[C@@H]1O [STREPTOMYCIN]
Not Active: IC50 [1] | IC50 [2] | IC50 [3] | IC50 [4] | IC50 [5] | IC50 [6] | IC50 [7] | IC50 [8] | IC50 [9] | IC50 [10] | Ki [10] | IC50 [11]

CC(C)(C)c1ccc(C(O)CCCN2CCC(C(O)(c3ccccc3)c3ccccc3)CC2)cc1 (stereo not drawn) [TERFENADINE]
Not Active: IC50 [1] | IC50 [2] | IC50 [3] | IC50 [4] | IC50 [5] | IC50 [6] | IC50 [7] | IC50 [8] | IC50 [9] | IC50 [10] | Ki [10] | IC50 [11]

CO[C@H]1/C=C/O[C@@]2(C)Oc3c(C)c(O)c4c(c3C2=O)C2=NC3(CCN(CC(C)C)CC3)NC2=C(NC(=O)/C(C)=C\C=C\[C@H](C)[C@H](O)[C@@H](C)[C@@H](O)[C@@H](C)[C@H](OC(C)=O)[C@@H]1C)C4=O [RIFABUTIN]
Not Active: IC50 [1] | IC50 [2] | IC50 [3] | IC50 [4] | IC50 [5] | IC50 [6] | IC50 [7] | IC50 [8] | IC50 [9] | IC50 [10] | Ki [10] | IC50 [11]

C[C@@H](N)[C@H]1CC[C@H](C(=O)Nc2ccncc2)CC1 [Y-27632]
Not Active: IC50 [1] | IC50 [2] | IC50 [3] | IC50 [4] | IC50 [5] | IC50 [6] | IC50 [7] | IC50 [8] | IC50 [9] | IC50 [10] | Ki [10] | IC50 [11]
